Test results as given in US4387086A, “Organic compounds” (Sandoz Ltd., priority 1979, dated 1983).

System: antiserum of Example 4
Assay: Cross-reactivity of the antiserum: inhibition by 50% of the reaction between antibody (antiserum) and tracer antigen (tritiated thioridazine)
Type: binding, sheep
Settings: relative to thioridazine; tracer tritiated thioridazine
Source text: The selectivity of the method can be determined as follows.
The main metabolites of thioridazine having a structure closely related to the parent compound are thioridazine-derivatives oxidized in the 2-methylthio side chain, more specifically the sulfoxide (A) and the sulfone (B), and also demethyl-thioridazine (C). The cross-reactivity of the antiserum was examined by employing a mixture of thioridazine, its sulfoxide A and sulfone B and its demethyl-thioridazine C in the amount required to inhibit the reaction between antibody (antiserum) and tracer antigen (tritiated thioridazine) by 50%.

inhibitory concentration where 50% binding to the antiserum of Example 4 occurs, times higher than that of the parent compound | SMILES
67 times | CN1CCCCC1CCN1c2ccccc2Sc2ccc([S+](C)[O-])cc21 (stereo not drawn) [A]
111 times | CSc1ccc2c(c1)N(CCC1CCCCN1)c1ccccc1S2 (stereo not drawn) [C, demethyl-thioridazine]
93 times | CN1CCCCC1CCN1c2ccccc2Sc2ccc(S(C)(=O)=O)cc21 (stereo not drawn) [B]
